Data as given in patent publication US4692443A, “3-bicyclicpyridinium-methyl cephalosporins” (Eli Lilly and Company, priority 1984, dated 1987).
≈ marks a conversion by molar mass, not a printed value. Read-outs that look alike come from different tables or passages of the source.

Legend:
Assay type in all cases: cell-based
Strep. PN PARK = test: standard in vitro agar dilution assay (MIC); details: Strep. PN strain PARK
Strep. D 9960 = test: standard in vitro agar dilution assay (MIC); details: Strep. D strain 9960
Staph. aureus X1.1 = test: standard in vitro agar dilution assay (MIC); details: Staphylococcus aureus
Klebsiella X68 = test: standard in vitro agar dilution assay (MIC)
Strep. D X66 = test: standard in vitro agar dilution assay (MIC); details: Strep. D strain X66
Staph. aureus X400 = test: standard in vitro agar dilution assay (MIC); details: Staphylococcus aureus; Staph. aureus strain X400
Enterobacter cloacae EB5 = test: standard in vitro agar dilution assay (MIC)
Serratia X99 = test: standard in vitro agar dilution assay (MIC)
Salmonella X514 = test: standard in vitro agar dilution assay (MIC)
E. coli N10 = test: standard in vitro agar dilution assay (MIC); details: Escherichia coli
Strep. A C203 = test: standard in vitro agar dilution assay (MIC); details: Strep. A strain C203
Klebsiella KAE = test: standard in vitro agar dilution assay (MIC); details: Klebsiella strain KAE; read-out: Agar Dilution MIC
Staph. epi 222 = test: standard in vitro agar dilution assay (MIC); details: Staph. epi strain 222
[1] = system: Enterobacter aerogenes C32; test: standard in vitro agar dilution assay (MIC); details: Klebsiella aerogenes
Staph. aureus V41 = test: standard in vitro agar dilution assay (MIC); details: Staphylococcus aureus
Klebsiella X26 = test: standard in vitro agar dilution assay (MIC)
Staph. aureus S13E = test: microbe, parasite or virus in culture; details: Staphylococcus aureus, read-out: Agar Dilution MIC
E. coli EC14 = test: standard in vitro agar dilution assay (MIC); details: Escherichia coli
H. influ. C.L. = test: standard in vitro agar dilution assay (MIC); details: read-out: Agar Dilution MIC
Staph. epi EPI1 = test: standard in vitro agar dilution assay (MIC); details: Staph. epi strain EPI1
Pseudomonas X239 = test: standard in vitro agar dilution assay (MIC); details: Pseudomonas strain X239
Pseudomonas X528 = test: standard in vitro agar dilution assay (MIC); details: Pseudomonas strain X528
Text: The antibacterial activity of several representative compounds of the invention has been evaluated in standard in vitro agar dilution assays. The following Table presents typical minimum inhibitory concentrations (MIC's) in μg /ml for exemplary compounds when evaluated against typical Gram + and Gram - microorganism.

H. influ. 76 = test: standard in vitro agar dilution assay (MIC); details: H. influ. strain 76; read-out: Agar Dilution MIC
E. coli TEM = test: standard in vitro agar dilution assay (MIC); details: Escherichia coli, read-out: Agar Dilution MIC
[2] = Staph. aureus strain X1.1, read-out: Agar Dilution MIC
[3] = Klebsiella, X68, read-out: Agar Dilution MIC
[4] = Enterobacter cloacae, EB5, read-out: Agar Dilution MIC
[5] = Serratia strain X99, read-out: Agar Dilution MIC
[6] = Salmonella strain X514, read-out: Agar Dilution MIC
[7] = E. coli strain N10, read-out: Agar Dilution MIC
[8] = C32, read-out: Agar Dilution MIC
[9] = Staph. aureus strain V41, read-out: Agar Dilution MIC
[10] = Klebsiella strain X26, read-out: Agar Dilution MIC
[11] = EC14, read-out: Agar Dilution MIC
[12] = Serratia, X99, read-out: Agar Dilution MIC
[13] = Klebsiella strain X68, read-out: Agar Dilution MIC
[14] = Enterobacter aerogenes strain C32, read-out: Agar Dilution MIC
[15] = E. coli strain EC14, read-out: Agar Dilution MIC

Compound	MIC (Strep. PN PARK)	MIC (Strep. D 9960)	MIC (Staph. aureus X1.1; [2])	MIC (Klebsiella X68; [3])	MIC (Strep. D X66)	MIC (Staph. aureus X400)	MIC (Enterobacter cloacae EB5; [4])	MIC (Salmonella X514; [6])	MIC (E. coli N10; [7])	MIC (Strep. A C203)	MIC (Klebsiella KAE)	MIC (Staph. epi 222)	MIC (Staph. aureus V41; [9])	MIC (Klebsiella X26; [10])	MIC (Staph. aureus S13E)	MIC (H. influ. C.L.; H. influ. strain C.L.)	MIC (Staph. epi EPI1)	MIC (Serratia X99; [12])	MIC (Pseudomonas X239)	MIC (Pseudomonas X528)	other results
CO/N=C(\C(=O)NC1C(=O)N2C(C(=O)[O-])=C(C[n+]3ccc4[nH]c(-c5ccccc5)nc4c3)CSC12)c1csc(N)n1 (stereo not drawn) [Example 9, syn-7-[2-(2-aminothiazol-4-yl)-2-methoxyiminoacetamido]-3-(2-phenyl-1H-imidazolo[4,5-c]pyridinium-5-ylmethyl)-3-cephem-4-carboxylate]	< 0.008 µg/mL	4 µg/mL (≈ 6.77 µM)	2 µg/mL (≈ 3.39 µM)	0.5 µg/mL (≈ 0.847 µM)	> 128 µg/mL	32 µg/mL (≈ 54.2 µM)	0.5 µg/mL (≈ 0.847 µM)	0.5 µg/mL (≈ 0.847 µM)	1 µg/mL (≈ 1.69 µM)	< 0.008 µg/mL	2 µg/mL (≈ 3.39 µM)	2 µg/mL (≈ 3.39 µM)	8 µg/mL (≈ 13.5 µM)	0.015 µg/mL (≈ 0.0254 µM)	8 µg/mL (≈ 13.5 µM)	0.5 µg/mL (≈ 0.847 µM)	4 µg/mL (≈ 6.77 µM)	–	–	–	MIC (Serratia X99; [5]): 1 µg/mL (≈ 1.69 µM); MIC [1, 8]: 0.5 µg/mL (≈ 0.847 µM); MIC (E. coli EC14; [11]): 0.125 µg/mL (≈ 0.212 µM)
CO/N=C(\C(=O)NC1C(=O)N2C(C(=O)[O-])=C(C[n+]3ccc4oc(C)nc4c3)CSC12)c1csc(N)n1 (stereo not drawn) [Example 11, syn-7-[2-(2-aminothiazol-4-yl)-2-methoxyiminoacetamido]-3-(2-methyloxazolo[4,5-c]pyridinium-5-ylmethyl)-3-cephem-4-carboxylate]	0.015 µg/mL (≈ 0.0283 µM)	8 µg/mL (≈ 15.1 µM)	–	–	> 128 µg/mL	32 µg/mL (≈ 60.4 µM)	0.125 µg/mL (≈ 0.236 µM)	0.03 µg/mL (≈ 0.0567 µM)	–	0.015 µg/mL (≈ 0.0283 µM)	4 µg/mL (≈ 7.55 µM)	1 µg/mL (≈ 1.89 µM)	8 µg/mL (≈ 15.1 µM)	0.015 µg/mL (≈ 0.0283 µM)	8 µg/mL (≈ 15.1 µM)	–	4 µg/mL (≈ 7.55 µM)	0.125 µg/mL (≈ 0.236 µM)	2 µg/mL (≈ 3.78 µM)	4 µg/mL (≈ 7.55 µM)	MIC (Staph. aureus X1.1; X1.1, read-out: Agar Dilution MIC): 0.5 µg/mL (≈ 0.944 µM); MIC (H. influ. C.L.): 0.125 µg/mL (≈ 0.236 µM)
CO/N=C(\C(=O)NC1C(=O)N2C(C(=O)[O-])=C(C[n+]3ccc4[nH]c(-c5cccs5)nc4c3)CSC12)c1csc(N)n1 (stereo not drawn) [Example 8, syn-7-[2-(2-aminothiazol-4-yl)-2-methoxyiminoacetamido]-3-[2-(2-thienyl)-1H-imidazolo[4,5-c]pyridinium-5-ylmethyl)-3-cephem-4-carboxylate]	< 0.008 µg/mL	4 µg/mL (≈ 6.7 µM)	2 µg/mL (≈ 3.35 µM)	0.5 µg/mL (≈ 0.838 µM)	> 128 µg/mL	32 µg/mL (≈ 53.6 µM)	0.5 µg/mL (≈ 0.838 µM)	0.5 µg/mL (≈ 0.838 µM)	1 µg/mL (≈ 1.68 µM)	< 0.008 µg/mL	4 µg/mL (≈ 6.7 µM)	2 µg/mL (≈ 3.35 µM)	8 µg/mL (≈ 13.4 µM)	0.015 µg/mL (≈ 0.0251 µM)	8 µg/mL (≈ 13.4 µM)	–	4 µg/mL (≈ 6.7 µM)	0.5 µg/mL (≈ 0.838 µM)	–	–	MIC [1, 8]: 0.5 µg/mL (≈ 0.838 µM); MIC (H. influ. C.L.): 0.25 µg/mL (≈ 0.419 µM)
CO/N=C(\C(=O)NC1C(=O)N2C(C(=O)[O-])=C(C[n+]3ccc4[nH]c(C)nc4c3)CSC12)c1csc(N)n1 (stereo not drawn) [Example 5, syn-7-[2-(2-aminothiazol-4-yl)-2-methoxyiminoacetamido]-3-(2-methyl-1H-imidazolo[4,5-c]pyridinium-5-ylmethyl)-3-cephem-4-carboxylate]	< 0.008 µg/mL	8 µg/mL (≈ 15.1 µM)	2 µg/mL (≈ 3.78 µM)	–	> 128 µg/mL	32 µg/mL (≈ 60.5 µM)	–	< 0.008 µg/mL	0.03 µg/mL (≈ 0.0568 µM)	< 0.008 µg/mL	2 µg/mL (≈ 3.78 µM)	1 µg/mL (≈ 1.89 µM)	8 µg/mL (≈ 15.1 µM)	< 0.008 µg/mL	8 µg/mL (≈ 15.1 µM)	0.015 µg/mL (≈ 0.0284 µM)	4 µg/mL (≈ 7.57 µM)	–	2 µg/mL (≈ 3.78 µM)	2 µg/mL (≈ 3.78 µM)	MIC (Klebsiella X68; [13]): 0.015 µg/mL (≈ 0.0284 µM); MIC (Serratia X99; [5]): 0.03 µg/mL (≈ 0.0568 µM); MIC [1, 14]: 0.03 µg/mL (≈ 0.0568 µM); MIC (H. influ. 76): 0.015 µg/mL (≈ 0.0284 µM); MIC (E. coli TEM; E. coli strain TEM): < 0.008 µg/mL; MIC (E. coli EC14; [15]): < 0.008 µg/mL
CO/N=C(\C(=O)NC1C(=O)N2C(C(=O)[O-])=C(C[n+]3ccc4c(c3)ncn4C)CSC12)c1csc(N)n1 (stereo not drawn) [Example 4, syn-7-[2-(2-aminothiazol-4-yl)-2-methoxyiminoacetamido]-3-(1-methyl-1H-imidazolo[4,5-c]pyridinium-5-ylmethyl)-3-cephem-4-carboxylate]	0.15 µg/mL (≈ 0.284 µM)	2 µg/mL (≈ 3.78 µM)	1 µg/mL (≈ 1.89 µM)	–	> 128 µg/mL	64 µg/mL (≈ 121 µM)	–	–	0.03 µg/mL (≈ 0.0568 µM)	0.15 µg/mL (≈ 0.284 µM)	4 µg/mL (≈ 7.57 µM)	1 µg/mL (≈ 1.89 µM)	8 µg/mL (≈ 15.1 µM)	0.015 µg/mL (≈ 0.0284 µM)	8 µg/mL (≈ 15.1 µM)	–	2 µg/mL (≈ 3.78 µM)	–	2 µg/mL (≈ 3.78 µM)	1 µg/mL (≈ 1.89 µM)	MIC (Klebsiella X68; [13]): 0.015 µg/mL (≈ 0.0284 µM); MIC (Enterobacter cloacae EB5; Enterobacter cloacae strain EB5, read-out: Agar Dilution MIC): 0.03 µg/mL (≈ 0.0568 µM); MIC (Salmonella X514; Salmonella, X514, read-out: Agar Dilution MIC): 0.05 µg/mL (≈ 0.0946 µM); MIC [1, 14]: 0.03 µg/mL (≈ 0.0568 µM); MIC (E. coli TEM; E. coli strain TEM): 0.015 µg/mL (≈ 0.0284 µM); MIC (E. coli EC14; [15]): < 0.008 µg/mL
CC(C)(O/N=C(\C(=O)NC1C(=O)N2C(C(=O)[O-])=C(C[n+]3ccc4[nH]cnc4c3)CSC12)c1csc(N)n1)C(=O)O (stereo not drawn) [Example 1, syn-7-[2-(2-Aminothiazol-4-yl)-2-(2-carboxyprop-2-yl)oxyiminoacetamido]-3-(1H-imidazolo[4,5c]pyridinium-5-ylmethyl)-3-cephem-4-carboxylate]	–	16 µg/mL (≈ 27.3 µM)	8 µg/mL (≈ 13.6 µM)	0.125 µg/mL (≈ 0.213 µM)	> 128 µg/mL	128 µg/mL (≈ 218 µM)	0.25 µg/mL (≈ 0.426 µM)	0.5 µg/mL (≈ 0.852 µM)	–	–	1 µg/mL (≈ 1.7 µM)	16 µg/mL (≈ 27.3 µM)	–	–	32 µg/mL (≈ 54.6 µM)	0.03 µg/mL (≈ 0.0511 µM)	32 µg/mL (≈ 54.6 µM)	0.5 µg/mL (≈ 0.852 µM)	2 µg/mL (≈ 3.41 µM)	8 µg/mL (≈ 13.6 µM)	MIC (E. coli N10; N10, read-out: Agar Dilution MIC): 0.5 µg/mL (≈ 0.852 µM); MIC [1, 14]: 1 µg/mL (≈ 1.7 µM); MIC (Staph. aureus V41; V41, read-out: Agar Dilution MIC): 32 µg/mL (≈ 54.6 µM); MIC (E. coli TEM): 0.125 µg/mL (≈ 0.213 µM); MIC (Klebsiella X26; Klebsiella, X26, read-out: Agar Dilution MIC): 0.125 µg/mL (≈ 0.213 µM); MIC (E. coli EC14; [11]): 0.125 µg/mL (≈ 0.213 µM)
